Data set [1] can be described thus: Metabolic stability in Wistar rat plasma at 39 MBq, iv after 60 mins. The data set is classed as ADME, organism-based. Particulars: read-out: Stability.
Data set [2] has as its target Vascular endothelial growth factor receptor 2 (Homo sapiens, UniProt P35968). In words: Binding affinity to DNA-tagged VEGFR2 by qPCR based competitive binding assay. In general terms: Real-time PCR tracks product formation cycle by cycle.
Data set [3] is described as follows: Cytotoxicity against VEGFR expressing HAEC after 72 hrs by MTT assay. Format: functional, Homo sapiens. (Tetrazolium dyes change colour on reduction, which living cells bring about.)
Data set [4] concerns HT-29. In words: Cytotoxicity against VEGFR expressing human HT-29 cells after 72 hrs by MTT assay. Format: functional, cell-based. The conditions noted are these: HT-29, 72 h.

We go through three compounds from ChEMBL document CHEMBL2150864 (Eur J Med Chem, 2012).

What is called Kd is a measure of binding affinity in units of concentration. Lower therefore signals higher affinity. The IC50 is the concentration that gives 50% inhibition. Read a high IC50 as weaker potency.

The structures appear in SMILES notation. Where only a bound is given, the exact number is not on record here.

Sequence of Vascular endothelial growth factor receptor 2 (P35968 whole entry): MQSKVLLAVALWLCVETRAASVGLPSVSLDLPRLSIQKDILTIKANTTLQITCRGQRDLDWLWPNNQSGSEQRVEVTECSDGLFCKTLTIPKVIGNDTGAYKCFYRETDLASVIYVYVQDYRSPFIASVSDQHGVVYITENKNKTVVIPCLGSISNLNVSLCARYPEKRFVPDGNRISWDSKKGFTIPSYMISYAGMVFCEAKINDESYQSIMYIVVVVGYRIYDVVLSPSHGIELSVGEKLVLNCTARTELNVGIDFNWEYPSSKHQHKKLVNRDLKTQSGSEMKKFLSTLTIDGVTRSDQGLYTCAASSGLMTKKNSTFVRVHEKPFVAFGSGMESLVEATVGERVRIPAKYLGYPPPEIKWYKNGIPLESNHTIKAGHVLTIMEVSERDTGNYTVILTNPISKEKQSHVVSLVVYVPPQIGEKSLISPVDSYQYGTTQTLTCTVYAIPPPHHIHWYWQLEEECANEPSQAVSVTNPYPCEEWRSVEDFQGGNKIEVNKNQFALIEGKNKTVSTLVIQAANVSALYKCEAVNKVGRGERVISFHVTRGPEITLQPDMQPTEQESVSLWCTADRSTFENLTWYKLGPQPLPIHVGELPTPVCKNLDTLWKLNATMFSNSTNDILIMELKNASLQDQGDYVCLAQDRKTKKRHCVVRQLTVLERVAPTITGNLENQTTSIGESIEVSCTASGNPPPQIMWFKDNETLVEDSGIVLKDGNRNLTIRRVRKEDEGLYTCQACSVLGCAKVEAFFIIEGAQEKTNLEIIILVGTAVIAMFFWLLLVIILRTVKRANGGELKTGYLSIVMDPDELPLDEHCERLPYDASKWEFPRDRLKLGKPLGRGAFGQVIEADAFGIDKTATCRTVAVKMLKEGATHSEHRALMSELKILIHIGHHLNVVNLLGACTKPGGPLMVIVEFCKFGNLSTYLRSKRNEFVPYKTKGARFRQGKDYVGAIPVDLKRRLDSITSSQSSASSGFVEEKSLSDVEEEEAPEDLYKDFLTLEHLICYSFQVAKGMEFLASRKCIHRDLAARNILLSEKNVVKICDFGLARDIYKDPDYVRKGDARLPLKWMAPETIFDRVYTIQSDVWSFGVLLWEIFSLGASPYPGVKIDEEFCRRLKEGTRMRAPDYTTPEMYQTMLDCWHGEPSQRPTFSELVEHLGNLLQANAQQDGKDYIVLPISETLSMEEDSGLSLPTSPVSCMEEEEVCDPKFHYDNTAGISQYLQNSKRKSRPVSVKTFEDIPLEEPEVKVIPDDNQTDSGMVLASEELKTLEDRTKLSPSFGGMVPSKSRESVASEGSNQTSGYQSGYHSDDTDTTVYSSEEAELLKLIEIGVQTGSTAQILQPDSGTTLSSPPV

For the compound `CCN(CC)CCNC(=O)c1c(C)[nH]c(/C=C2\C(=O)Nc3ccc(O[11CH3])cc32)c1C`, in data set [1], the remaining at 1 h is more than 70%.
In turn, `CCN(CC)CCNC(=O)c1c(C)[nH]c(/C=C2\C(=O)Nc3ccc(OC)cc32)c1C` displayed a Kd in data set [2] of 0.02 µM. Further, the IC50 stood at 54.8 µM in data set [3] and 7.88 µM in data set [4].
Consider `CCN(CC)CCNC(=O)c1c(C)[nH]c(/C=C2\C(=O)Nc3ccc(F)cc32)c1C` [SUNITINIB], for which the IC50 in data set [3] was 0.1 µM.
